Experimental data reported in patent US7608415B2, “Analysis of intracellular modifications” (Discoverx Corporation, priority 2004, dated 2009).

Test system: IκB-PL
Assay: Homogenous EFC assay of lysates of HeLa/IκB-PL stable cell line stimulated with TNF-α
Assay type: cell-based
Details: increasing time periods
Excerpt: The second experimental example illustrates the sensitivity of the EAstern blot method by following the regulated degradation of a PL-tagged cellular protein, IκB-PL. […] Stimulation of cells with cytokines, such as TNF-α, activates a pathway that leads to phosphorylation, ubiquitination, and subsequent degradation of IκB, which in turn leads to the release and activation of NF-κB. The regulated degradation of IκB is thus an indicator for NF-κB pathway activation.
Cell lysate samples for EAstern blot analysis were prepared from a HeLa/IκB-PL stable cell line (WO 03/021265, filed Aug. 27, 2002) that was cultured and stimulated with TNF-α for increasing time periods. […] Another fraction of each was used for gel electrophoresis and transfer to PVDF blots as described above. To detect IκB-PL, the EAstern blot protocol was adapted for use with the chemiluminescent substrate Beta-Glo (Promega Corp., Cat. No. E4720). In particular, after incubating with EA Reagent, the blot was incubated at RT for 10 min in a solution of Beta-Glo:EACB (1:1, v/v), sandwiched between clear plastic sheets, and then its luminescence detected with a CCD camera.

TNF-α
IκB-PL EFC signal after TNF-α stimulation: time-dependent degradation of IκB-PL signal
